From patent US6858723B1, “Amphiphile cyclodextrins, preparation and use thereof for solubilizing organized systems and incorporating hydrophobic molecules” (Commissariat a l'Energie Atomique, priority 1999, dated 2005)

Assays:
Assay type in all cases: physicochemical
[1] = neutron diffusion of nanoparticles loaded with hydrophobic compounds
From the text: FIG. 7 represents the neutron diffusion spectra obtained with: • the solution of nanoparticles of cyclodextrin according to example 1 and the fatty acid (1:0.5 eq. mol) (spectrum 9); • the solution of nanoparticles of cyclodextrin according to example 1 and the fatty acid (1:1 eg. mol) (spectrum 10); and • the solution of nanoparticles of cyclodextrin alone (spectrum 11).
In this figure, the theoretical spectrum (spectrum 12) simulating spheres has also been represented.
The intensity I(q) is increased. The Intensity I(q) is proportional to the volume of nanoparticles. The presence of additional molecules (fatty acid molecules) in the nanoparticles increases the value of the contrast and therefore the intensity.
The incorporation in mono-6-(cholest-5-en-3α-ylamide)succinylamide-6-deoxy-2,2′,2″,2′″,2″″,2′″″,2″″″,6′,6″,6′″, 6″″,6′″″,6″″″-trideca-O-methyl-cyclomaltoheptaose nanoparticles of the following hydrophobic compounds: • dothiepin (neurotrope), • chloramphenicol (bacteriostatic), • vitamin A, and • esculin (vascular wall tonic), • were also detected by neutron diffusion. References

[2] = neutron diffusion of nanoparticle solution; conditions: 10^−2 mol/l in D2O
From the text: The diffusion spectrum obtained from a 10^−2 mol/l solution in D2O of the cyclodextrin derivative in example 1 is represented in FIG. 1 (spectrum 1).
In FIG. 1, the theoretical spectra simulating spheres (spectrum 2), cylinders (spectrum 3) or lamellae (spectrum 4) formed from the cyclodextrin derivative in example 1, at a concentration of 10^−2 mol/l in D2O, are also shown. […] These aggregates are lined on the surface with cyclodextrin cavities available for the inclusion of hydrophobic active molecules, the core being composed of cholesterol groups. The theoretical spectrum simulating spheres gives a mean diameter of […] (50 Å) and a mean number of monomers per nanoparticle of 24.

[3] = static light diffusion of aqueous nanoparticle solutions
Protocol: The mean hydrodynamic diameter of the nanoparticles was measured by quasi-elastic light diffusion. The mean diameter MD value calculated according to the Stokes-Einstein approximation based on the interaction-free perfect sphere model is […] (60 Å). The static light diffusion analysis of aqueous solutions of nanoparticles at different concentrations (2.5.10^−3, 5.10^−3 and 10^−2 mol/l) gives a mean aggregate mass of 43,000 g/mol, which is equivalent to a mean of 24 monomers per nanoparticle.

[4] = cmc by surface tension measurements
Protocol: The cmc of the cyclodextrin in example 1 was determined with surface tension measurements. The value of the cmc is 9.10^−6 mol/l.

Compound	incorporation in nanoparticles of the cyclodextrin of example 1 [1]	further results
CC(CCCCCCCCCCCCCI)CC(=O)O (stereo not shown) [16-iodo-3-methylhexadecanoic acid]	marked modifications on the diffusion spectra	
O=C(N[C@H](CO)[C@H](O)c1ccc([N+](=O)[O-])cc1)C(Cl)Cl [chloramphenicol]	detected	
CN(C)CC/C=C1\c2ccccc2CSc2ccccc21 [dothiepin]	detected	
O=c1ccc2cc(O[C@@H]3O[C@H](CO)[C@@H](O)[C@H](O)[C@H]3O)c(O)cc2o1 [esculin]	detected	
mono-6-(cholest-5-en-3α-ylaamide)succinylamide-6-deoxy-2,2′,2″,2′″,2″″,2′″″,2″″″,6,6′,6″,6′″,6″″,6′″″,6″″″-trideca-O-methyl-cyclomaltoheptaose [example 1]		shape of aggregates ([2]; experimental spectrum superimposed with theoretical spectrum of spheres): spherical shape; mean number of monomers per nanoparticle ([2]; theoretical spectrum simulating spheres): 24; mean aggregate mass ([3]; aqueous solutions 2.5.10^−3, 5.10^−3 and 10^−2 mol/l): 43,000 g/mol; mean monomers per nanoparticle ([3]; from mean aggregate mass): 24; critical micellar concentration cmc [4]: 9.10^−6 mol/l
vitamin A	detected	
